Experimental data reported in patent US20240336574A1 (LATIGO BIOTHERAPEUTICS, INC., priority 2021, published 2024).
Where two headings read alike, the source gives them in different places.

Target: T1, recombinant human NaV1.8 stably transfected HEK cells (Homo sapiens, UniProt Q9Y5Y9)
T1 construct: expressed in transfected cells; host or cells: HEK cells, stably transfected
Assay: Compound profiling on NaV1.8, human NaV1.8 cell line, SyncroPatch384PE automated patch clamp assay (Example 102, first set of compounds, Table 16)
Type: cell-based
Conditions: human NaV1.8 HEK cells, Table 16 (first set of compounds)
Method: Compound Profiling on NaV1.8—Human NaV1.8 Cell Line—SyncroPatch384PE Assay
Compounds were tested on recombinant human NaV1.8 stably transfected HEK cells using the SyncroPatch384PE system, an automated patch clamp device. Cells were cultured at 37° C./5% CO2 in DMEM medium supplemented with GlutaMAX I, NEAA 1%, FBS 10% and seeded in T175 flasks. Cells were cultured at 30° C. one day prior to recording sodium currents. On the day of the recordings, cells were detached with 0.05% Trypsin-EDTA, resuspended in serum free DMEM medium and placed into the SyncroPatch384PE 6° C. pre-cooled cell hotel and shaken at 200 rpm. Intracellular solution (IC) contained, in mM: 10, CsCl; 110, CsF; 20, EGTA; 10, HEPES. Extracellular solution (EC) contained, in mM: 140, NaCl; 4, KCl; 5, Glucose; 10, HEPES; 2, CaCl2; 1, MgCl2. Washing solution contained, in mM: 40, NMDG; 100, NaCl; 4, KCl; 10, Glucose; 10, HEPES; 5, CaCl2; 1, MgCl2.
Compounds were tested in triplicate in 0.1% DMSO and 0.030% Pluronic Acid. Compounds were diluted 1:3 in EC solution to create a 10-point concentration response curve, spanning a final concentration range from 20-0.001 μM in the assay plate. Each plate contained tetracaine and another tool compound as positive controls. Up to 8 compounds were tested on one plate. 250 μM tetracaine and 0.1% DMSO were used as high and low controls, respectively. Whole cell patch clamp recordings were conducted according to Nanion's standard procedure for SyncroPatch384PE®. Cells were held at a holding potential of −120 mV. A depolarization step to 10 mV for 30 ms was applied (P1 measurement), followed by a hyperpolarization step to −100 mV for 100 ms. An inactivation step at −40 mV for 10 sec was applied before stepping to −100 mV for 20 ms, followed by a step to 10 mV for 30 ms (P2 measurement) and then back to −100 mV for 30 ms. Sweep interval was 15 sec with a sampling rate of 10 kHz. Following establishment of the whole-cell configuration in EC, two washing steps with reference buffer were performed to stabilize the baseline. Compounds were then applied by the SynchroPatch into each well and the current was recorded for five minutes in EC, followed by application of tetracaine to achieve full block at the end of the experiment. The potency of the compounds was assessed on two read-outs, resting state block (P1 measurement) or inactivated state block (P2 measurement) to obtain IC50 values. Values were normalized to high (tetracaine) and low (DMSO) controls. The IC50 values are listed in Table 16 as follows: “A” represents an IC50 less than or equal to 20 nM, “B” represents an IC50 greater than 20 nM to less than or equal to 40 nM, “C” represents an IC50 greater than 40 nM to less than or equal to 200 nM, “D” represents an IC50 greater than 200 nM to less than or equal to 500 nM.

[1] = inactivated state block (P2 measurement), read-out: P2IC50
[2] = resting state block (P1 measurement), read-out: P1IC50

T1 sequence (Q9Y5Y9 whole entry): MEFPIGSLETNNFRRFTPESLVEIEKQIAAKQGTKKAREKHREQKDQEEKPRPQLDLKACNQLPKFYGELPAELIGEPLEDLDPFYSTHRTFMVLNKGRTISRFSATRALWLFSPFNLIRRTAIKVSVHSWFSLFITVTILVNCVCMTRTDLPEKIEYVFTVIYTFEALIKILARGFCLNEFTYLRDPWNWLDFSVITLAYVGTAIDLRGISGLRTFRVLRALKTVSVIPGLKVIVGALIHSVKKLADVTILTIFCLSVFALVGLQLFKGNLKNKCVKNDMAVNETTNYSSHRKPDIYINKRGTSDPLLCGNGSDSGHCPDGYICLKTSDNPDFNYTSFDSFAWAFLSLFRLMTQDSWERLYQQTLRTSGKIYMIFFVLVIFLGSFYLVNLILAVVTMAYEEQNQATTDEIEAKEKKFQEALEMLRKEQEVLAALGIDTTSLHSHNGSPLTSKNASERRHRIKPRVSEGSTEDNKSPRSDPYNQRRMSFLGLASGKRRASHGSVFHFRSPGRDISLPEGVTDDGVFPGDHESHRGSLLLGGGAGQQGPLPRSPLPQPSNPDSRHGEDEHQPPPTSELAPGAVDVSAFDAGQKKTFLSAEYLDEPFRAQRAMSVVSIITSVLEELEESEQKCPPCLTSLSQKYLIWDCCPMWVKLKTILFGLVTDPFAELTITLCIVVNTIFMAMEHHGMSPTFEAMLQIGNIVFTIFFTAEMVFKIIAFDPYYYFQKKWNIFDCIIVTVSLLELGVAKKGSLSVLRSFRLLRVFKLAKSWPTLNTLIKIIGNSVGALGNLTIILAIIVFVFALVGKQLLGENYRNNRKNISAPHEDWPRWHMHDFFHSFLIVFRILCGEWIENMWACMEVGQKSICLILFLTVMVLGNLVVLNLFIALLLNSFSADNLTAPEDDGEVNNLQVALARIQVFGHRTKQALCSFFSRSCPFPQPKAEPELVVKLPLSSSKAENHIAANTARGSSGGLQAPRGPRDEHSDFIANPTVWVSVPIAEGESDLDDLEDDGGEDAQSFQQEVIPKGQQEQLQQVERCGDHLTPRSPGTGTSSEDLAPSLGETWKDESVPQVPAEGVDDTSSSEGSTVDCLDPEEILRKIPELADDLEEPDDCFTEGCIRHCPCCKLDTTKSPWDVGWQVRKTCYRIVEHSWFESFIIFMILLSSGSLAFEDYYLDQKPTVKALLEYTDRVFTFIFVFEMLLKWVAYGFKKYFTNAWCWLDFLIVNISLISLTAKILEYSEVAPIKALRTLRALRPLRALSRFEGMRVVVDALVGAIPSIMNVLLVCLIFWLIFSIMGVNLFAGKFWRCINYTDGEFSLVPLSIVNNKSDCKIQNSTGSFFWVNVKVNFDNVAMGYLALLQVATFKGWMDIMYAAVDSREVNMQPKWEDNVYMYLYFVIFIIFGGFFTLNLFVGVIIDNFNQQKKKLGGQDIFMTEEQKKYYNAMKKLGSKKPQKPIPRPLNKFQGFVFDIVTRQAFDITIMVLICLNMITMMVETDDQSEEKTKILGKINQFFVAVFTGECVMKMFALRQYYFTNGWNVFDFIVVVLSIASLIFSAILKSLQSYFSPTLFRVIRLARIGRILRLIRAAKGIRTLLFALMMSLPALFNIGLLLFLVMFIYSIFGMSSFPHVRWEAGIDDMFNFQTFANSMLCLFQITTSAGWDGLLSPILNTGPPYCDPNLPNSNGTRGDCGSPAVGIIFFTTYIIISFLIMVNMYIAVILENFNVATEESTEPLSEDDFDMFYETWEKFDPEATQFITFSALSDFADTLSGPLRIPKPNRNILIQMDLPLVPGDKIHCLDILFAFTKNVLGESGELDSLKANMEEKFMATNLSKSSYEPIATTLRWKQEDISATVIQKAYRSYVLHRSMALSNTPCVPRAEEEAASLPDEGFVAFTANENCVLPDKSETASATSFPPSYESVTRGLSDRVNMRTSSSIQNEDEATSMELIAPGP

| Compound | IC50 [1] [nM] | IC50 [2] [nM] |
| --- | --- | --- |
| CS(=N)(=O)c1cccc(NC(=O)c2cc(C(F)(F)F)cnc2OC2CC(C(F)(F)F)C2)c1 (mixture of isomers) [Compound 1666] | 40 to 200 | 40 to 200 |
| NC(=O)c1cccc(NC(=O)c2cc(C(F)(F)F)cnc2OC2CC(C(F)(F)F)C2)c1 (mixture of isomers) [Compound 1667] | 200 to 500 | 200 to 500 |
| N#CC1CC(Oc2ncc(C(F)(F)F)cc2C(=O)Nc2cccc(C(N)=O)c2)C1 (mixture of isomers) [Compound 1668] | 200 to 500 | 200 to 500 |
| NC(=O)c1ccc(NC(=O)c2cc(C(F)(F)F)cnc2OC2CC(C(F)(F)F)C2)cc1 (mixture of isomers) [Compound 1670] | 200 to 500 | 200 to 500 |
| N#CC1CC(Oc2ncc(C(F)(F)F)cc2C(=O)Nc2ccc(C(N)=O)cc2)C1 (mixture of isomers) [Compound 1671] | 200 to 500 | 200 to 500 |
| COc1cc(Cl)ccc1Oc1nnc(C(F)(F)F)c(C)c1C(=O)Nc1cccc(S(C)(=N)=O)c1 (single isomer, unassigned) [Compound 1482, 3-(4-chloro-2-methoxyphenoxy)-5-methyl-N-(3-(S-methylsulfonimidoyl)phenyl)-6-(trifluoromethyl)pyridazine-4-carboxamide] |  | ≤ 20 |
| Cc1ccc(Oc2nnc(C(F)(F)F)c(C)c2C(=O)Nc2cccc(S(C)(=N)=O)c2)c(C)n1 (single isomer, unassigned) [Compound 1484, 3-[(2,6-dimethylpyridin-3-yl)oxy]-N-{3-[imino(methyl)oxo-λ^6-sulfanyl]phenyl}-5-methyl-6-(trifluoromethyl)pyridazine-4-carboxamide] | 200 to 500 | 200 to 500 |
| Cc1ccc(Oc2nnc(C(F)(F)F)c(C)c2C(=O)Nc2cccc(S(C)(=N)=O)c2)c(C)n1 (single isomer, unassigned) [Compound 1485, 3-[(2,6-dimethylpyridin-3-yl)oxy]-N-{3-[imino(methyl)oxo-λ^6-sulfanyl]phenyl}-5-methyl-6-(trifluoromethyl)pyridazine-4-carboxamide] |  | 200 to 500 |
| Cc1c(Oc2nnc(C(F)(F)F)c(C)c2C(=O)Nc2cccc(S(C)(=N)=O)c2)ccc(Cl)c1F (single isomer, unassigned) [Compound 1487, 3-(4-chloro-3-fluoro-2-methyl-phenoxy)-5-methyl-N-[3-(methylsulfonimidoyl)phenyl]-6-(trifluoromethyl)pyridazine-4-carboxamide] | ≤ 20 | ≤ 20 |
| COc1c(Oc2nnc(C(F)(F)F)c(C)c2C(=O)Nc2cccc(S(C)(=N)=O)c2)ccc(Cl)c1F (single isomer, unassigned) [Compound 1490, 3-(4-chloro-3-fluoro-2-methoxy-phenoxy)-5-methyl-N-[3-(methylsulfonimidoyl)phenyl]-6-(trifluoromethyl)pyridazine-4-carboxamide] | ≤ 20 | ≤ 20 |
| Cc1c(C(F)(F)F)nnc(Oc2ccc(OC3CCC3)c(F)c2F)c1C(=O)Nc1cccc(S(C)(=N)=O)c1 (single isomer, unassigned) [Compound 1493, 3-(4-cyclobutoxy-2,3-difluorophenoxy)-N-{3-[imino(methyl)oxo-λ^6-sulfanyl]phenyl}-5-methyl-6-(trifluoromethyl)pyridazine-4-carboxamide] | ≤ 20 | ≤ 20 |
| Cc1c(C(F)(F)F)nnc(Oc2ccc(OC3CCC3)c(F)c2F)c1C(=O)Nc1cccc(S(C)(=N)=O)c1 (single isomer, unassigned) [Compound 1494, 3-(4-cyclobutoxy-2,3-difluorophenoxy)-N-{3-[imino(methyl)oxo-λ^6-sulfanyl]phenyl}-5-methyl-6-(trifluoromethyl)pyridazine-4-carboxamide] | 20 to 40 | ≤ 20 |
| Cc1c(C(F)(F)F)nnc(Oc2ccc(OC(F)(F)F)cc2F)c1C(=O)Nc1cccc(S(C)(=N)=O)c1 (single isomer, unassigned) [Compound 1496, 3-[2-fluoro-4-(trifluoromethoxy)phenoxy]-N-{3-[imino(methyl)oxo-λ^6-sulfanyl]phenyl}-5-methyl-6-(trifluoromethyl)pyridazine-4-carboxamide] | ≤ 20 | ≤ 20 |
| Cc1nc(OC2CCC2)ccc1Oc1nnc(C(F)(F)F)c(C)c1C(=O)Nc1cccc(S(C)(=N)=O)c1 (single isomer, unassigned) [Compound 1499, 3-((6-cyclobutoxy-2-methylpyridin-3-yl)oxy)-5-methyl-N-(3-(S-methylsulfonimidoyl)phenyl)-6-(trifluoromethyl)pyridazine-4-carboxamide] | 40 to 200 | 40 to 200 |

The remaining lines, values ahead:

| IC50 [1] [nM] | IC50 [2] [nM] | Compound |
| --- | --- | --- |
| ≤ 20 | ≤ 20 | Cc1c(C(F)(F)F)nnc(Oc2ccc(Cl)cc2F)c1C(=O)Nc1cccc(S(C)(=N)=O)c1 (single isomer, unassigned) [Compound 1471, 3-(4-chloro-2-fluoro-phenoxy)-5-methyl-N-[3-(methylsulfonimidoyl)phenyl]-6-(trifluoromethyl)pyridazine-4-carboxamide] |
|  | ≤ 20 | Cc1c(C(F)(F)F)nnc(Oc2ccc(Cl)cc2F)c1C(=O)Nc1cccc(S(C)(=N)=O)c1 (single isomer, unassigned) [Compound 1472, 3-(4-chloro-2-fluoro-phenoxy)-5-methyl-N-[3-(methylsulfonimidoyl)phenyl]-6-(trifluoromethyl)pyridazine-4-carboxamide] |
| ≤ 20 | ≤ 20 | COc1c(Oc2nnc(C(F)(F)F)c(C)c2C(=O)Nc2cccc(S(C)(=N)=O)c2)ccc(F)c1F (single isomer, unassigned) [Compound 1473, 3-(3,4-difluoro-2-methoxy-phenoxy)-5-methyl-N-[3-(methylsulfonimidoyl)phenyl]-6-(trifluoromethyl)pyridazine-4-carboxamide] |
|  | ≤ 20 | COc1c(Oc2nnc(C(F)(F)F)c(C)c2C(=O)Nc2cccc(S(C)(=N)=O)c2)ccc(F)c1F (single isomer, unassigned) [Compound 1474, 3-(3,4-difluoro-2-methoxy-phenoxy)-5-methyl-N-[3-(methylsulfonimidoyl)phenyl]-6-(trifluoromethyl)pyridazine-4-carboxamide] |
| ≤ 20 | ≤ 20 | Cc1c(C(F)(F)F)nnc(Oc2ccc(OC(F)(F)F)c(F)c2F)c1C(=O)Nc1cccc(S(C)(=N)=O)c1 (single isomer, unassigned) [Compound 1477, 3-[2,3-difluoro-4-(trifluoromethoxy)phenoxy]-5-methyl-N-[3-(methylsulfonimidoyl)phenyl]-6-(trifluoromethyl)pyridazine-4-carboxamide] |
|  | ≤ 20 | Cc1c(C(F)(F)F)nnc(Oc2ccc(OC(F)(F)F)c(F)c2F)c1C(=O)Nc1cccc(S(C)(=N)=O)c1 (single isomer, unassigned) [Compound 1478, 3-[2,3-difluoro-4-(trifluoromethoxy)phenoxy]-5-methyl-N-[3-(methylsulfonimidoyl)phenyl]-6-(trifluoromethyl)pyridazine-4-carboxamide] |
| ≤ 20 | ≤ 20 | COc1cc(C#N)ccc1Oc1nnc(C(F)(F)F)c(C)c1C(=O)Nc1cccc([S@@](C)(=N)=O)c1 (single isomer, unassigned) [Compound 1479] |
| ≤ 20 | ≤ 20 | COc1cc(C#N)ccc1Oc1nnc(C(F)(F)F)c(C)c1C(=O)Nc1cccc([S@](C)(=N)=O)c1 (single isomer, unassigned) [Compound 1480] |
| ≤ 20 | ≤ 20 | COc1cc(Cl)ccc1Oc1nnc(C(F)(F)F)c(C)c1C(=O)Nc1cccc(S(C)(=N)=O)c1 (single isomer, unassigned) [Compound 1481, 3-(4-chloro-2-methoxyphenoxy)-5-methyl-N-(3-(S-methylsulfonimidoyl)phenyl)-6-(trifluoromethyl)pyridazine-4-carboxamide] |
